Assay results: PMC6494935, “Glesatinib, a c-MET/SMO Dual Inhibitor, Antagonizes P-glycoprotein Mediated Multidrug Resistance in Cancer Cells” (Frontiers in Oncology, 2019)

Tests used:
[1] = target: T1, P-glycoprotein (P-gp, ABCB1) (Homo sapiens, UniProt P08183); assay: vanadate-sensitive ATPase stimulation in membrane vesicles; also inhibits [3H]-paclitaxel efflux in KB-C2 cells; format: biochemical; design: ABCB1 in membrane vesicles of High Five insect cells
[2] = target: T1, P-glycoprotein (P-gp, ABCB1)

T1 sequence (P08183 whole entry): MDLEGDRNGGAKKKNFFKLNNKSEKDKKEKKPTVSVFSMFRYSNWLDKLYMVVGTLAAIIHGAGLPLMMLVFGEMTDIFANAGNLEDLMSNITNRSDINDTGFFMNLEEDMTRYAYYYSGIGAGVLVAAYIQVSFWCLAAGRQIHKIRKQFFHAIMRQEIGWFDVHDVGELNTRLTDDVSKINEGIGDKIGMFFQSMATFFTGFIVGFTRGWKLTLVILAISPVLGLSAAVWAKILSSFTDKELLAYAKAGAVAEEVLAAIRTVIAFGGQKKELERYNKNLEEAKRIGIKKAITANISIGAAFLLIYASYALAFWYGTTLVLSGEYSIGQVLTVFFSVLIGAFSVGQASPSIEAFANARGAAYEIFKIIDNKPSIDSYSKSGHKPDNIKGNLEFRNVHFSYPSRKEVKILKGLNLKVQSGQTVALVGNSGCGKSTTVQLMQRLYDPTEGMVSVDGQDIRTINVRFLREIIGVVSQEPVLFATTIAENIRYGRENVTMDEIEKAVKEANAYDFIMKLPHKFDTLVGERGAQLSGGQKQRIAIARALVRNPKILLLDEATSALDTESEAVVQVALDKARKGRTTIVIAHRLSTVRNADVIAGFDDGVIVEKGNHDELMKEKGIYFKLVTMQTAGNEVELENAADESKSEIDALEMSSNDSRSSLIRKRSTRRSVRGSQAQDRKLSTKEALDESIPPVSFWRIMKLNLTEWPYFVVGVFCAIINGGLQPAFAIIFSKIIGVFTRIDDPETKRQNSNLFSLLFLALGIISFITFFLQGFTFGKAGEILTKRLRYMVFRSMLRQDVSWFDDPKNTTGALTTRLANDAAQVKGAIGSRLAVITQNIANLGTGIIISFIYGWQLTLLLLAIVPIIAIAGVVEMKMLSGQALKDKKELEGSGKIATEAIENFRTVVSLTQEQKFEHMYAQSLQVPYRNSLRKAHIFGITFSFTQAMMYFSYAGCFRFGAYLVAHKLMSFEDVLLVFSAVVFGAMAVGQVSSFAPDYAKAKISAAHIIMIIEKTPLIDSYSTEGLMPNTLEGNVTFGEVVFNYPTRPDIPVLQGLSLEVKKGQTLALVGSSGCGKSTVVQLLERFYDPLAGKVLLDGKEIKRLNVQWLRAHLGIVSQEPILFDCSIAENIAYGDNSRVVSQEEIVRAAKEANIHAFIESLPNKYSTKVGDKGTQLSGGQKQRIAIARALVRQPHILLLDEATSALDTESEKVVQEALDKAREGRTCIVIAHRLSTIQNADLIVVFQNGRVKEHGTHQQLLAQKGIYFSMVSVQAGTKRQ

EC50 [1] [µM]	SMILES	[3H]-paclitaxel accumulation and efflux in KB-C2 vs parental KB-3-1 cells [2]
3.2	COCCNCc1ccc(-c2cc3nccc(Oc4ccc(NC(=S)NC(=O)Cc5ccc(F)cc5)cc4F)c3s2)nc1 [glesatinib]	
	CC(=O)O[C@H]1C(=O)[C@@]2(C)[C@H]([C@H](OC(=O)c3ccccc3)[C@]3(O)C[C@H](OC(=O)[C@H](O)[C@@H](NC(=O)c4ccccc4)c4ccccc4)C(C)=C1C3(C)C)[C@]1(OC(C)=O)CO[C@@H]1C[C@@H]2O [paclitaxel]	While in P-gp overexpressing KB-C-2 cells, [^3H]-paclitaxel accumulation decreased significantly as shown in Figures 4A,C.
